The values that follow come from patent publication US20150065494A1, “AMINOSTYRYLBENZOFURAN DERIVATIVES AS INHIBITORS AGAINST BETA-AMYLOID FIBRIL FORMATION, AND PHARMACEUTICAL COMPOSITION COMPRISING SAME” (KOREA INSTITUTE OF SCIENCE AND TECHNOLOGY, priority 2012, published 2015).

Where a name gives a salt, the structure may show the parent alone. Where only a bound is given, the exact number is not on record here.

The experiment addresses T1, beta-amyloid 42 (Aβ42) (Homo sapiens, UniProt P05067).
T1 construct: Beta-amyloid 42 (Aβ42) was dissolved in dimethylsulfoxide (DMSO) to form a 250 mM Aβ42 stock solution
In words: Inhibitory effect on the formation of beta-amyloid fibrils in vitro (ThT fluorescence assay). Format: biochemical. The following applies: for % Inhibition (10 μM) / inhibition at 10 µM: 10 μM compound, 25 μM Aβ42, ThT fluorescence; for Aβ42 % inhibition compared with comparative compound curcumin: 10 μM. As for the experimental part:
Beta-amyloid 42 (Aβ42) was dissolved in dimethylsulfoxide (DMSO) to form a […] Aβ42 stock solution. In addition, ThT (thioflavin T) was dissolved in distilled water to obtain a concentration of 1 mM and subsequently diluted with 50 mM glycin buffer (pH 8.5) to yield a 5 μM ThT stock solution. 45 μL of PBS (phosphate buffer saline, pH 7.4) was added to each of a 96-well fluorescence microplate (white, F-bottom). 5 μL of the 250 μM Aβ42 stock solution was added to each well. The final concentration of each compound obtained in Examples was in a range of 10 to 0.001 μM by adding 2 μL of a solution, which was prepared by dissolving the subject compounds obtained in Examples in DMSO, to each well. At this time, the final concentration of Aβ42 in each well was 25 μM. The plate was then incubated for 1 hr at room temperature, and 150 μL of the 5 μM ThT stock solution was added to each well.
The fluorescence intensity of each well was determined with the multi-label fluorescence counter (LS-55 Luminescence spectrometer: Perkin Elmer) at an excitation wavelength of 450 nm (excitation slit width: 10 nm) and an emission wavelength of 482 nm (emission slit width: 10 nm), while adjusting counting time to 1 second. The control group was prepared by adding PBS solution, Aβ42 and DMSO, without adding the inventive compound prepared above. A percent inhibition on the formation of beta-amyloid fibrils was calculated in accordance with the following equation, and IC50 was calculated by using GraphPad Prism version 4.03 Program.
% Inhibition=[1−(C−D)/(A−B)]×100
A (control group)=fluorescence intensity in a group treated with PBS solution, Aβ42 and DMSO
B (blank)=fluorescence intensity in a group treated with PBS solution and DMSO
C (experimental group)=fluorescence intensity in a group treated with PBS solution, Aβ42, the inventive compound and DMSO
D (compensation value to the experimental group) =fluorescence intensity in a group treated with PBS solution, the inventive compound and DMSO

T1 sequence (P05067 672-713 limits assumed): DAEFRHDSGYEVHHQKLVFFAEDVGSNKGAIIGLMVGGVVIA

Turning to `CN(C)c1ccc(/C=C/c2cc3ccc(OCCN4CCOCC4)cc3o2)cc1.Cl` [Example 27, (E)-6-(2-(4-morpholinoethoxy))-2-(4-dimethylaminostyryl)benzofuran hydrochloride], the “% Inhibition (10 μM)” value was “** (** (50% ≦ × < 70%))”. In turn, `C[C@@H]1CN(CCCOc2ccc3cc(/C=C/c4ccc(N(C)C)cc4)oc3c2)C[C@H](C)O1` [Example 28, (E)-6-(3-((2S,6R)-2,6-dimethylmorpholino)propoxy)-2-(4-dimethylaminostyryl)benzofuran hydrochloride] displayed an inhibition at 10 µM of less than 50%. Same read-out and setting: then `CN1CCN(CCCOc2ccc3cc(/C=C/c4ccc(N(C)C)cc4)oc3c2)CC1` [Example 33, (E)-6-(3-(4-methyl-1-piperazinyl)propoxy)-2-(4-dimethylaminostyryl)benzofuran hydrochloride], with less than 50%. Take `CN(C)c1ccc(/C=C/c2cc3ccc(OCCCN4CCOCC4)cc3o2)cc1.Cl` [Example 25, (E)-6-(3-(4-morpholinopropoxy))-2-(4-dimethylaminostyryl)benzofuran hydrochloride]: the “Aβ42 % inhibition compared with comparative compound curcumin” value is listed as “equal to or greater than that of the comparative compound, curcumin” and the “% Inhibition (10 μM)” value is “*** (*** (70%≦))”. The molecule `CN(C)c1ccc(/C=C/c2cc3ccc(OCCN4CCOC4)cc3o2)cc1` [Example 21, (E)-6-(2-(3-oxazolidinyl)ethoxy)-2-(4-dimethylaminostyryl)benzofuran hydrochloride] registered an inhibition at 10 µM of 50 to 70%. As for `CN(C)c1ccc(/C=C/c2cc3ccc(OCC4CCCCN4C)cc3o2)cc1` (stereo not shown) [Example 31, (E)-6-(1-methyl-2-piperidinylmethoxy)-2-(4-dimethylaminostyryl)benzofuran hydrochloride], the inhibition at 10 µM is less than 50%.

With `CN(C)c1ccc(/C=C/c2cc3ccc(OCCCN4CCS(=O)(=O)CC4)cc3o2)cc1.Cl` [Example 35, (E)-6-(3-(thiomorpholine-1,1-dioxide)propoxy)-2-(4-dimethylaminostyryl)benzofuran hydrochloride], the “% Inhibition (10 μM)” value is reported as “* (* (<50%))”. On to `CN(C)c1ccc(/C=C/c2cc3ccc(OCCCN4CCSCC4)cc3o2)cc1.Cl` [Example 34, (E)-6-(3-(4-thiomorpholinopropoxy))-2-(4-dimethylaminostyryl)benzofuran hydrochloride], for which the “% Inhibition (10 μM)” value is listed as “* (* (<50%))”. Consider `CCN(CC)CCCOc1ccc2cc(/C=C/c3ccc(N(C)C)cc3)oc2c1` [Example 24, (E)-6-(3-diethylaminopropoxy)-2-(4-dimethylaminostyryl)benzofuran hydrochloride], for which the inhibition at 10 µM was in the range of 50 to 70%. Take `COc1cc(/C=C/C(=O)CC(=O)/C=C/c2ccc(O)c(OC)c2)ccc1O` [Curcumin, curcumin, reference compound]: the inhibition at 10 µM was no less than 70%.

In the case of `CN(C)c1ccc(/C=C/c2cc3ccc(OCCCN4CCCCC4)cc3o2)cc1` [Example 11, (E)-6-(3-(1-piperidinyl)propoxy)-2-(4-dimethylaminostyryl)benzofuran], the inhibition at 10 µM is less than 50%. `CN(C)c1ccc(/C=C/c2cc3ccc(OCCCc4ccccn4)cc3o2)cc1` [Example 37, (E)-6-(3-(2-pyridinyl)propoxy)-2-(4-dimethylaminostyryl)benzofuran hydrochloride]: the inhibition at 10 µM is less than 50%. With `CN(C)c1ccc(/C=C/c2cc3ccc(OCCCc4ccncc4)cc3o2)cc1` [Example 17, (E)-6-(3-(4-pyridinyl)propoxy)-2-(4-dimethylaminostyryl)benzofuran], the inhibition at 10 µM was less than 50%. `CN1CCCC(COc2ccc3cc(/C=C/c4ccc(N(C)C)cc4)oc3c2)C1` (stereo not shown) [Example 32, (E)-6-(1-methyl-3-piperidinylmethoxy)-2-(4-dimethylaminostyryl)benzofuran hydrochloride] displayed an inhibition at 10 µM of less than 50%. For the molecule `CN(C)c1ccc(/C=C/c2cc3ccc(OCCN4CCCCC4)cc3o2)cc1.Cl` [Example 29], the “% Inhibition (10 μM)” value is reported as “* (* (<50%))”. Molecule `CN(C)c1ccc(/C=C/c2cc3ccc(OCCCc4cccnc4)cc3o2)cc1` [Example 38, (E)-6-(3-(3-pyridinyl)propoxy)-2-(4-dimethylaminostyryl)benzofuran hydrochloride] yielded an inhibition at 10 µM of less than 50%. On to `COc1ccc2cc(/C=C/c3ccc(N(C)CCF)cc3)oc2c1` [Example 20, (E)-6-(methoxy)-2-(4,4′-methyl(2-fluoroethyl)aminostyryl)benzofuran], for which the “Aβ42 % inhibition compared with comparative compound curcumin” value is “equal to or greater than that of the comparative compound, curcumin” and the inhibition at 10 µM was no less than 70%.

By inhibition is commonly meant the share of the control response that was lost under treatment. A high value points to a strong effect.
